Test results taken from patent publication US10780042B2, “Cosmetic compositions” (Symrise AG, priority 2015, dated 2020).

Experiments:
POMC gene expression = test: Particle induced POMC gene expression in human epidermal keratinocytes (qRT-PCR); assay type: cell-based
Description: (§1) Gene expression was induced by different model particles. […] The details are set out in Table 1:
(§2) Gene expression was analyzed via qRT-PCR.
(§3) Ginger root CO2 extract has been dissolved in DMSO and diluted in medium. […] Gene expression was analyzed via qRT-PCR. […] Table 7 compiles the results for ginger root CO2 extract altered POMC and IL-6 gene expression
(§4) Purple coneflower pressed juice has been dissolved directly in medium. […] Gene expression was analyzed via qRT-PCR. […] Table 8 compiles the results for purple coneflower pressed juice altered POMC and IL-6 gene expression
(§5) Gene expression was analyzed via qRT-PCR. […] Table 9 compiles the results for purple coneflower pressed juice altered POMC and IL-6 gene expression

cyclooxygenase-1 = cyclooxygenase-1 (Homo sapiens, UniProt P23219); conditions: described in WO 200 230385 A2 (Henkel); cited from earlier work
Sequence of cyclooxygenase-1 (P23219 24-599, species assumed): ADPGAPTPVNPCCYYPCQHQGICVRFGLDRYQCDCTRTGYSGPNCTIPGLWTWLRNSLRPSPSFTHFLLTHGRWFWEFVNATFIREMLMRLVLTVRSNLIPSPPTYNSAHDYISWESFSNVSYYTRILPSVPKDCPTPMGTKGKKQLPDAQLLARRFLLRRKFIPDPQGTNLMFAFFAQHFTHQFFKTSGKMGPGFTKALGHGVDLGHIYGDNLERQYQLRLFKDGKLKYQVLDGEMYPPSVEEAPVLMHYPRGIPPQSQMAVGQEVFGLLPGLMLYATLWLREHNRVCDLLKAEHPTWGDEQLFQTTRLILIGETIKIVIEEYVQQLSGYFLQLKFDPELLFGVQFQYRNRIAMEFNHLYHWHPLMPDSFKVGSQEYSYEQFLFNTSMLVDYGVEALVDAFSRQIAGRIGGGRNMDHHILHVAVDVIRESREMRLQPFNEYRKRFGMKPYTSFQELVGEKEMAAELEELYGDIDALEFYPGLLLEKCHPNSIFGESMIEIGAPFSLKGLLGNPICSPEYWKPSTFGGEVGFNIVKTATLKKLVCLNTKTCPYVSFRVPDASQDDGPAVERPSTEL

5-lipoxygenase = biological target: T1, 5-lipoxygenase (Homo sapiens, UniProt P09917); conditions: described in WO 200 230385 A2 (Henkel); cited from earlier work
T1 sequence (P09917 1-674): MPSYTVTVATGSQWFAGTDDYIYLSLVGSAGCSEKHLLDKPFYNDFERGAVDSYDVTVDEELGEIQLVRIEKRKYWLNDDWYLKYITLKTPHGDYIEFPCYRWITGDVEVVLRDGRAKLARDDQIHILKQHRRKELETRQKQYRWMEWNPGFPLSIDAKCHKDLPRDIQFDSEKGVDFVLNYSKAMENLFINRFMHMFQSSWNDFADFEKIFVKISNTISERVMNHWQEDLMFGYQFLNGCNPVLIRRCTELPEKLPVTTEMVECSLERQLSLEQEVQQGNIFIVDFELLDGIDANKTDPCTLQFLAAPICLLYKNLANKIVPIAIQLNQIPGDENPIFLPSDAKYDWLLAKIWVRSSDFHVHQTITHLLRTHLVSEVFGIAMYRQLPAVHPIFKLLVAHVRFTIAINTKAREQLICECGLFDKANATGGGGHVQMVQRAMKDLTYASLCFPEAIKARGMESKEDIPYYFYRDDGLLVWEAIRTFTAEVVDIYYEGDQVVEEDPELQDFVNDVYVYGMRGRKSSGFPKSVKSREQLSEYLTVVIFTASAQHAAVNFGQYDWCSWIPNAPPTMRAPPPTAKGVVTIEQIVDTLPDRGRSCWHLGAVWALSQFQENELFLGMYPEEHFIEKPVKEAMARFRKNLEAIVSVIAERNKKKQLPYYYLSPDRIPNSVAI

IL-6 gene expression = test: Particle induced IL-6 gene expression in human epidermal keratinocytes (qRT-PCR); assay type: cell-based
Description: as §1, §2, §3, §4, §5

CYP1A1 gene expression = test: Particle induced CYP1A1 gene expression in human epidermal keratinocytes (qRT-PCR); assay type: cell-based; conditions: for CYP1A1 Induction mean ± SE: 10 μM BDDI
Description: as §1, §2

AhR = biological target: T2, AhR (Homo sapiens, UniProt P35869); conditions: stated as known; cited from earlier work
T2 sequence (P35869 11-848): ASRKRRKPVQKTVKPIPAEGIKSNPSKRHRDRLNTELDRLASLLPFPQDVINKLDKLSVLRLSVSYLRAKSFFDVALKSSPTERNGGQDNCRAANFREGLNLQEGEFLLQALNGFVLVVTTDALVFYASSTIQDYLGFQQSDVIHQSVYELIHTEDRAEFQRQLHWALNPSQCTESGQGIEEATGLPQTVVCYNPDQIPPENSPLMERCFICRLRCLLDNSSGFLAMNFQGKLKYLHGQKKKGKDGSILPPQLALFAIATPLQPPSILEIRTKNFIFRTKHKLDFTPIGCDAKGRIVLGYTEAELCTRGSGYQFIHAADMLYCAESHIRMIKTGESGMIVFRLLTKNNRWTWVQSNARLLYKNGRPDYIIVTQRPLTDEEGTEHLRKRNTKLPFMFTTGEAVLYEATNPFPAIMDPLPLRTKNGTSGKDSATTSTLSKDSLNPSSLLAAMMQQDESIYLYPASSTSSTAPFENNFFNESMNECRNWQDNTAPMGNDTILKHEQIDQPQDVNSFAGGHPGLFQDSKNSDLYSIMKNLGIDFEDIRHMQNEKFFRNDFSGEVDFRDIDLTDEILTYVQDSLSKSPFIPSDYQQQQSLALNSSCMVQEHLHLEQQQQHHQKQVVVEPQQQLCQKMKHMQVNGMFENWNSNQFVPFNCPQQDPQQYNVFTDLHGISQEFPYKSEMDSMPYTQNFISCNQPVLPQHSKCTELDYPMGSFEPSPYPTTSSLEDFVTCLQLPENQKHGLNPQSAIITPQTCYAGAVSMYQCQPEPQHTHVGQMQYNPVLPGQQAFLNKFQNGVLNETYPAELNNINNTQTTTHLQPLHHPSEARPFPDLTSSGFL

MMP1 gene expression = test: Particle induced MMP1 gene expression in human epidermal keratinocytes (qRT-PCR); assay type: cell-based
Description: as §1, §2

Compound | inhibition of particle induced POMC gene expression (in words) (POMC gene expression) | inhibition of cyclooxygenase-1 activity (in words) (cyclooxygenase-1) | inhibition of 5-lipoxygenase (in words) (5-lipoxygenase) | inhibition of particle induced IL-6 gene expression (in words) (IL-6 gene expression) | CYP1A1 Induction mean ± SE (CYP1A1 gene expression; NHEK adult, 6 h, SRM1650 1.5 μg/cm2, untreated = 1, particles alone 2.90) | CYP1A1 Induction mean ± SE (CYP1A1 gene expression; NHEK adult, 6 h, SRM2975 1.5 μg/cm2, untreated = 1, particles alone 1.03) | CYP1A1 Induction mean ± SE (CYP1A1 gene expression; NHEK adult, 24 h, SRM2975 1.5 μg/cm2, untreated = 1, particles alone 4.90) | inhibition of particle induced Cyp1A1 gene expression (in words) (CYP1A1 gene expression; indoor as well as outdoor model particles) | CYP1A1 Induction mean ± SE (CYP1A1 gene expression; indoor particles Huber990 1.5 μg/cm2, 6 h, untreated = 1, particles alone 2.70) | CYP1A1 Induction mean ± SE (CYP1A1 gene expression; indoor particles Huber990 1.5 μg/cm2, 24 h, untreated = 1, particles alone 2.90) | upregulation of the AhR by UVB radiation (in words) (AhR) | inhibition of particle induced MMP1 gene expression (in words) (MMP1 gene expression)
CC1(C)CCC[C@]2(C)C3CC(=O)O[C@]3(C)CC[C@@H]12 (stereo partly drawn) [Sclareolide, (3aR,5aS,9aS,9bR)-decahydro-3a,6,6,9a-tetramethyl-naphtha[2,1-b]furan-2(1H)-one] | capable to inhibit | inhibition | inhibition |  |  |  |  |  |  |  |  | 
C=C[C@](C)(O)CC[C@@H]1[C@@]2(C)CCCC(C)(C)[C@@H]2CC[C@@]1(C)O [sclareol, reference compound] |  | inhibition | inhibition |  |  |  |  |  |  |  |  | 
E/Z-2-benzylindene-5,6-dimethoxy-3,3-dimethylindan-1-one [BDDI] | capable to inhibit |  |  | capable to inhibit | 0.02 ± 0.00 | 0.20 ± 0.00 | 0.01 ± 0.00 | capable to inhibit | 0.05 ± 0.00 | 0.20 ± 0.00 | prevent the upregulation | capable to inhibit
